Reference: US20230257354A1, “NOVEL HETEROCYCLIC COMPOUNDS” (Hoffmann-La Roche Inc., priority 2020, published 2023)

Tested on: Acinetobacter baumannii ATCC17978
Assay: Antimicrobial susceptibility testing, 90% growth inhibitory concentration (IC90) determination, ATCC17978
Assay type: cell-based
Details: Iso-Sensitest broth, OD 600 nm over 16 h, 35±2° C., read-out: ATCC 17978 IC90
Outline: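 Serial twofold dilutions (e.g. 50 to 0.097 μM final) in Iso-Sensitest broth, inoculum ~5×10^(5) CFU/ml, incubated 35±2 °C for 16 h. OD600 read every 20 min; growth inhibition calculated during logarithmic growth to derive the concentration inhibiting 90% of growth, in μM.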

| IC90 [nM] | SMILES |
| --- | --- |
| 1200 | Cn1c(-c2ccc(OCC#N)c(F)c2F)cnc1C(=O)Nc1ccc(C(=O)NCCNC(=O)[C@@H]2CCNC[C@@H]2O)c(Cl)c1 [Example B32, (3R,4R)-N-[2-[[2-chloro-4-[[5-[4-(cyanomethoxy)-2,3-difluoro-phenyl]-1-methyl-imidazole-2-carbonyl]amino]benzoyl]amino]ethyl]-3-hydroxy-piperidine-4-carboxamide;formic acid] |
| 1100 | Cn1c(-c2ccc(OCC#N)c(F)c2F)cnc1C(=O)Nc1ccc(C(=O)NCCNC(=O)[C@H]2CCNC[C@H]2O)c(Cl)c1 [Example B33, (3S,4S)-N-[2-[[2-chloro-4-[[5-[4-(cyanomethoxy)-2,3-difluoro-phenyl]-1-methyl-imidazole-2-carbonyl]amino]benzoyl]amino]ethyl]-3-hydroxy-piperidine-4-carboxamide;formic acid] |
| 1700 | Cn1c(-c2ccc(OCC#N)c(F)c2F)cnc1C(=O)Nc1ccc(C(=O)NCCNC(=O)[C@@H]2CCNC[C@H]2O)c(Cl)c1 [Example B34, (3S,4R)-N-[2-[[2-chloro-4-[[5-[4-(cyanomethoxy)-2,3-difluoro-phenyl]-1-methyl-imidazole-2-carbonyl]amino]benzoyl]amino]ethyl]-3-hydroxy-piperidine-4-carboxamide;formic acid] |
| 1300 | Cn1c(-c2ccc(OCC#N)c(F)c2F)cnc1C(=O)Nc1ccc(C(=O)NCCNC(=O)[C@H]2CCNC[C@@H]2O)c(Cl)c1 [Example B35, (3R,4S)-N-[2-[[2-chloro-4-[[5-[4-(cyanomethoxy)-2,3-difluoro-phenyl]-1-methyl-imidazole-2-carbonyl]amino]benzoyl]amino]ethyl]-3-hydroxy-piperidine-4-carboxamide;formic acid] |
| 1100 | Cn1c(-c2ccc(OCC#N)c(F)c2F)cnc1C(=O)Nc1ccc(C(=O)NCCNC(=O)[C@H]2C[C@@](C)(O)CN2)c(Cl)c1 [Example B36, N-[3-chloro-4-[2-[[(2R,4R)-4-hydroxy-4-methyl-pyrrolidine-2-carbonyl]amino]ethylcarbamoyl]phenyl]-5-[4-(cyanomethoxy)-2,3-difluoro-phenyl]-1-methyl-imidazole-2-carboxamide;formic acid] |
| 850 | CC[C@]1(O)CN[C@@H](C(=O)NCCNC(=O)c2ccc(NC(=O)c3ncc(-c4ccc(OCC#N)c(F)c4F)n3C)cc2Cl)C1 [Example B37, N-[3-chloro-4-[2-[[(2R,4R)-4-ethyl-4-hydroxy-pyrrolidine-2-carbonyl]amino]ethylcarbamoyl]phenyl]-5-[4-(cyanomethoxy)-2,3-difluoro-phenyl]-1-methyl-imidazole-2-carboxamide;formic acid] |
| 57 | COc1ccc(-c2cnc(C(=O)Nc3ccc(C(=O)N[C@H]4C[C@@H](NC(=O)C5CCNCC5)C4)c(Cl)c3)n2C)c(F)c1F [Example B39, N-[3-[[2-chloro-4-[[5-(2,3-difluoro-4-methoxy-phenyl)-1-methyl-imidazole-2-carbonyl]amino]benzoyl]amino]cyclobutyl]piperidine-4-carboxamide;formic acid] |
| 120 | COc1ccc(-c2cnc(C(=O)Nc3ccc(C(=O)N[C@H]4C[C@@H](NC(=O)C5(O)CCNCC5)C4)c(Cl)c3)n2C)c(F)c1F [Example B40, N-[3-[[2-chloro-4-[[5-(2,3-difluoro-4-methoxy-phenyl)-1-methyl-imidazole-2-carbonyl]amino]benzoyl]amino]cyclobutyl]-4-hydroxy-piperidine-4-carboxamide;formic acid] |
| 130 | COc1ccc(-c2cnc(C(=O)Nc3ccc(C(=O)N[C@H]4C[C@@H](NC(=O)[C@@H]5CCNC[C@@H]5O)C4)c(Cl)c3)n2C)c(F)c1F [Example B41, (3R,4R)-N-[3-[[2-chloro-4-[[5-(2,3-difluoro-4-methoxy-phenyl)-1-methyl-imidazole-2-carbonyl]amino]benzoyl]amino]cyclobutyl]-3-hydroxy-piperidine-4-carboxamide;formic acid] |
